Assay results reported in patent US20070265451A1, “Process for the preparation of oxazolidinones and method of use thereof” (Board of Trustees of Michigan State University, priority 2001, published 2007).
Values after ≈ are worked out from the molar mass of the structure shown.

How the values were obtained:
[1] = system: Staphylococcus aureus 29213; experiment: Broth microdilution MIC, Staphylococcus aureus ATCC 29213; assay type: cell-based; details: for MIC: Staphylococcus aureus, ATCC29213, Table 2, read-out: MIC(90-100) SA-ATCC 29213; for MIC(90-100) SA-ATCC 29213: Table 2
Source text: See, NCCLS document M7-A5. Methods for Dilution Antimicrobial Susceptibility Tests for Bacteria That Grow Aerobically; Approved Standard-Fifth Edition. Volume 20, Number 2. January 2000, (ISBN 1-56238-394-9) and Lorian V. Antibiotics. Laboratory Medicine. 4th ed. Baltimore: Williams and Wilkins, pp. 52-111 (1996). For subsequent testing, the following strains have been used: Staphylococcus aureus NRS4 (992; HIP5836; New Jersey) (Smith et al., New Engl. J. Med. 340: 493-501 (1999); Tenover et al., J. Clin. Microbiol. 36: 1020-1027 (1998)), Staphylococcus aureus NRS3 (963sm; HIP5827; Michigan) (Smith et al., ibid.; Tenover et al., ibid.), Staphylococcus aureus NRS103 (Becker) (Karakawa and Vann, Sem. Infect. Dis. 4: 285 (1982), Staphylococcus aureus NRS102 (Reynolds) Karakawa and Vann, ibid; McMurray et al., JID 162: 759-762 (1990)), Staphylococcus epidermidis NRS101 (ATCC 35984), Streptococcus pneumoniae (ATCC 49619), Enterococcus faecalis (ATCC 51299), and Staphylococcus aureus (ATCC 43300.
Stock cultures of these strains were obtained by seeding colonies from overnight streak plates (Tryptic Soy Agar II (TSAII) and 5% sheep's blood (SB) agar plates: Becton Dickinson, CA#2211261) into sterile Mueller-Hinton Broth (MHB)(Becton Dickinson, CA#211443) and growing the suspensions to mid-late log phase in 13 mL screw-cap tubes. Glycerol (Sigma, CA#G-6279) was sterilized by autoclaving for 15 minutes at 121° C. in 6 mL volumes, and then stored at 2-8° C. This was diluted to 20% in dH2O, and then added 1:1 (250 μL:250 μL, 10% final glycerol concentration) to the logarithmically growing bacterial suspension of each strain. Tubes were frozen and stored at −70° C. Purity of the stock cultures was tested by thawing one tube of each strain in a water bath at 37° C. and plating them on TSAII with 5% SB. Plates were incubated overnight at 37° C. and colonies were examined for morphology. Growth curves and approximate CFU/mL were also obtained.
High purity substituted oxazolidinones prepared according to the method of the present invention and a ZYVOX standard (ZYVOX is a trade name for linezolid available from Pharmacia Corporation) were provided by Synthon Corporation, Monmouth Junction, N.J. Compounds were dissolved at 10 mg/mL in DMSO, as after a dilution of approx. 39.0 to reach the desired final starting concentration of 256 ug/ml, the concentration of DMSO is approximately 2.5%. Compounds were then stored at room temperature (25° C.) in the dark.
Antimicrobial susceptibility screening was as follows. All compounds were initially screened for activity in duplicate at 256 μg/mL (2.5% DMSO), including ZYVOX, the positive control for antimicrobial activity. A single well of bacterially inoculated 2.5% DMSO served as a positive control for bacterial growth, while a well of DMSO inoculated with of 50 μL of sterile 0.9% saline served as a negative growth control. Controls were prepared on every microplate, so that 46 was the maximum number of compounds that were screened per plate. Broth was pipetted into sterile microcentrifuge tubes, to which the compounds were then added (1:19.53 dilution or 2× final concentration). Each tube was vortexed, and 50 μL was immediately transferred to the microplate wells for each strain. Solubility was assessed by visual observation. MB (medium broth solubility) was recorded if the solution appeared only slightly cloudy. LB (low broth solubility) was recorded if the solution was extremely cloudy, and especially if larger, clumpy precipitates formed. Bacteria were grown as described above, although absorbance was measured at 650 nm and bacteria were diluted to an initial OD of 0.12-0.15. Bacteria were then further diluted 1:100 with 0.9% sterile saline. Within 15 minutes of this final dilution, 50 μL of this suspension was added to each well for a final volume of […], and a final bacterial concentration of 1×10^5 CFU/mL (except for the negative control well). Plates were grown as above and all observations were recorded. […]

[2] = system: Enterococcus faecalis 29212; experiment: Broth microdilution MIC, Enterococcus faecalis ATCC 29212; assay type: cell-based; details: for MIC: Enterococcus faecalis, ATCC29212, Table 2, read-out: MIC(90-100) EF-ATCC 29212; for MIC(90-100) EF-ATCC 29212: Table 2

CC(C)(C)C(=O)CN1C[C@@H](COS(=O)(=O)c2ccc(Cl)c3nonc23)OC1=O [Compound 34, (S)-3-(3,3-dimethyl-2-butone)-5-(7-chloro-2,1,3-benzoxadiazole-4-sulfonyloxymethyl)-2-oxazolidinone]
MIC [1]: 250 µg/mL (≈ 579 µM)

C=CCN1CC(COS(=O)(=O)c2ccc([N+](=O)[O-])cc2)OC1=O (stereo not shown) [Compound 108]
MIC [1]: 62.5 µg/mL (≈ 183 µM)

CC#CCN1CC(COS(=O)(=O)c2ccc([N+](=O)[O-])cc2)OC1=O (stereo not shown) [Compound 110]
MIC [1]: 31.3 µg/mL (≈ 88.3 µM)

C#CCN1CC(COS(=O)(=O)c2ccc(Cl)c3nonc23)OC1=O (stereo not shown) [Compound 235]
MIC [1]: 62.5 µg/mL (≈ 168 µM)

C#CCN1CC(COS(=O)(=O)c2ccc([N+](=O)[O-])cc2)OC1=O (stereo not shown) [Compound 236]
MIC [1]: 31.3 µg/mL (≈ 92 µM)

O=C1O[C@H](COS(=O)(=O)c2ccc([N+](=O)[O-])cc2)CN1C(=O)C1CC1 [Compound 250]
MIC [1]: 250 µg/mL (≈ 675 µM)

COc1ccc(C(=O)CN2CC(COS(=O)(=O)c3ccc(Cl)c4nonc34)OC2=O)cc1 (stereo not shown) [Compound 254]
MIC [1]: 125 µg/mL (≈ 259 µM)

C=CCN1CC(COS(=O)(=O)c2ccc(Cl)c3nonc23)OC1=O (stereo not shown) [Compound 255]
MIC [1]: 62.5 µg/mL (≈ 167 µM)
MIC [2]: 250 µg/mL (≈ 669 µM)

O=C(CN1C[C@@H](COS(=O)(=O)c2ccc(Cl)c3nonc23)OC1=O)C1CC1 [Compound 260]
MIC [1]: 250 µg/mL (≈ 601 µM)

CN1CC(COS(=O)(=O)c2ccc([N+](=O)[O-])cc2)OC1=O (stereo not shown) [Compound 266]
MIC [1]: 15.6 µg/mL (≈ 49.3 µM)

CC(C)(C)C(=O)CCN1C[C@@H](COS(=O)(=O)c2ccc([N+](=O)[O-])cc2)OC1=O [Compound 272]
MIC [1]: 250 µg/mL (≈ 603 µM)

CCC#CCN1CC(COS(=O)(=O)c2ccc(Cl)c3nonc23)OC1=O (stereo not shown) [Compound 276]
MIC [1]: 125 µg/mL (≈ 313 µM)
MIC [2]: 250 µg/mL (≈ 625 µM)

CCCCN1CC(COS(=O)(=O)c2ccc(Cl)c3nonc23)OC1=O (stereo not shown) [Compound 285]
MIC(90-100) SA-ATCC 29213 [1]: 62.5 µg/mL (≈ 160 µM)
MIC(90-100) EF-ATCC 29212 [2]: 250 µg/mL (≈ 641 µM)

CCOC(=O)CC(C)(C)C(=O)CN1C[C@@H](COS(=O)(=O)c2ccc(Cl)c3nonc23)OC1=O [Compound 291]
MIC [1]: 250 µg/mL (≈ 496 µM)

CCC#CCN1CC(COS(=O)(=O)c2ccc([N+](=O)[O-])cc2)OC1=O (stereo not shown) [Compound 294]
MIC [1]: 31.3 µg/mL (≈ 85 µM)
MIC [2]: 250 µg/mL (≈ 679 µM)

COc1cccc(CN2CC(COS(=O)(=O)c3ccc(Cl)c4nonc34)OC2=O)c1 (stereo not shown) [Compound 323]
MIC [1]: 250 µg/mL (≈ 551 µM)
MIC [2]: 125 µg/mL (≈ 275 µM)

COc1ccc(C(=O)CN2CC(COS(=O)(=O)c3sc(NC(C)=O)nc3C)OC2=O)c(OC)c1 (stereo not shown) [Compound 324]
MIC [1]: 62.5 µg/mL (≈ 122 µM)
MIC [2]: 250 µg/mL (≈ 487 µM)

O=C1O[C@H](COS(=O)(=O)c2ccc([N+](=O)[O-])cc2)CN1C(=O)c1ccco1 [Compound 334]
MIC [1]: 62.5 µg/mL (≈ 158 µM)

O=C(CN1CC(COS(=O)(=O)c2ccc(Cl)c3nonc23)OC1=O)c1ccc(F)cc1 (stereo not shown) [Compound 369]
MIC [1]: 250 µg/mL (≈ 532 µM)
MIC [2]: 31.3 µg/mL (≈ 66.6 µM)

CCOC(=O)/C=C/N1CC(COS(=O)(=O)C2=CC=C([N+](=O)[O-])CC2)OC1=O (stereo not shown) [Compound 388]
MIC [1]: 125 µg/mL (≈ 311 µM)

O=C(CN1CC(COS(=O)(=O)c2ccc(Cl)c3nonc23)OC1=O)c1ccc(F)cc1 (stereo not shown) [Compound 401]
MIC(90-100) SA-ATCC 29213 [1]: 250 µg/mL (≈ 532 µM)
MIC(90-100) EF-ATCC 29212 [2]: 62.5 µg/mL (≈ 133 µM)

CC(C)(C)CC(=O)CN1C[C@@H](COS(=O)(=O)c2ccc([N+](=O)[O-])cc2)OC1=O [Compound 533]
MIC [1]: 125 µg/mL (≈ 302 µM)

O=C(CN1C[C@@H](COS(=O)(=O)c2ccc([N+](=O)[O-])cc2)OC1=O)N1CCOCC1 [Compound 589]
MIC [1]: 125 µg/mL (≈ 291 µM)

COC(=O)CN1C[C@@H](COS(=O)(=O)c2ccc([N+](=O)[O-])cc2)OC1=O [Compound 669]
MIC [1]: 62.5 µg/mL (≈ 167 µM)

COC(=O)CN1C[C@@H](COS(=O)(=O)c2ccc(Cl)c3nonc23)OC1=O [Compound 674]
MIC [1]: 250 µg/mL (≈ 616 µM)
MIC [2]: 125 µg/mL (≈ 308 µM)
